The text below walks through data of patent publication US20240002377A1, “PYRROLOPYRIDINE COMPOUND AND APPLICATION THEREOF” (MEDSHINE DISCOVERY INC., priority 2020, published 2024).

Chain of BTK^C481S (Q06187 whole entry C481S): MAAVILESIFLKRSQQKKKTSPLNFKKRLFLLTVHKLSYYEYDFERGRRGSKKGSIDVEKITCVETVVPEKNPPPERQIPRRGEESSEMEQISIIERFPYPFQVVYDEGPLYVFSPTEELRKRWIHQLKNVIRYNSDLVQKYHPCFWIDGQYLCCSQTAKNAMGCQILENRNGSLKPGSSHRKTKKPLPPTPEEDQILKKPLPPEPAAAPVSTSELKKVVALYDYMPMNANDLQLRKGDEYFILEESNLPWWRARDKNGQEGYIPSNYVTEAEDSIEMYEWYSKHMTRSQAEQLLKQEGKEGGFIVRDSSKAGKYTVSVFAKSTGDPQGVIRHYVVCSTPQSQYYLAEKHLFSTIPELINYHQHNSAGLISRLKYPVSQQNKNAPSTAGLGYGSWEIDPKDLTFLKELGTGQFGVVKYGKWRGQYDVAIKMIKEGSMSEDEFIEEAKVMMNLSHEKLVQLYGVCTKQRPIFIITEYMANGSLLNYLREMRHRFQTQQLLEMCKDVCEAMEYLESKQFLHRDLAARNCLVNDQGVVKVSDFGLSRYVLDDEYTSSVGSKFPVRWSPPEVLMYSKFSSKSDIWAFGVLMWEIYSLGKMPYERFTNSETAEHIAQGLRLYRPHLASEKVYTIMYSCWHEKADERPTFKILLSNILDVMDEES

The test addresses BTK^C481S (Homo sapiens (Human), UniProt Q06187, C481S). The test can be described thus: BTK enzyme activity assay (33P-ATP filter-binding). It is filed as biochemical. To be noted: 200 μM ATP; 20 min pre-incubation, 2 h reaction at room temperature; radiometric filter-binding. On the procedure: Assay Example 1: BTK Enzyme Activity Assay
The specific assay process of BTK enzyme activity assay is as follows: Buffer solution: 20 mM hydroxyethyl piperazine ethanesulfonic acid (Hepes) (pH 7.5), 10 mM magnesium chloride, 1 mM ethylenebis(oxyethylenenitrilo)tetraacetic acid (EGTA), 0.02% polyoxyethylene dodecyl ether (Brij35), 0.02 mg/mL BSA, 0.1 mM sodium vanadate (Na3VO4), 2 mM dithiothreitol (DTT), 1% DMSO, 200 μM adenosine triphosphate (ATP). • 1. The substrate was prepared in freshly prepared reaction buffer; • 2. The required cofactor was added to the above-mentioned substrate solution; • 3. The kinase BTK^C481S sis was added to the above-mentioned substrate solution and mix well; • 4. The compound dissolved in DMSO was added to the kinase reaction mixture through Echo550 (Acoustic technology; nanolite range), and the mixture was incubated at room temperature for 20 minutes; • 5. ^33P-ATP (specific activity of radioactivity is 10 μCi/μL) was added to the reaction mixture to initiate the reaction; • 6. The mixture was incubated at room temperature for 2 hours; • 7. The radioactivity was detected by filter-binding method; • 8. Kinase activity data represented the percentage of remaining kinase activity in the assay sample compared to the vehicle (dimethyl sulfoxide) reaction.
As usually defined, the IC50 is the midpoint of a concentration-inhibition curve. A higher IC50 goes with weaker potency. As to `N#Cc1cnc2[nH]cc(C(=O)c3ccc(Oc4ccccc4)cc3Cl)c2c1N[C@@H]1CC[C@@H](CO)OC1` [Compound 4], the IC50 is 7.4 nM.

As to `N#Cc1cnc2[nH]cc(C(=O)c3ccc(Oc4cccc(F)c4)cc3Cl)c2c1N[C@@H]1CC[C@@H](CO)OC1` [Compound 1], the IC50 was 58.9 nM.

Molecule `CO[C@@H]1C[C@@H](CO)OC[C@@H]1Nc1c(C#N)cnc2[nH]cc(C(=O)c3ccc(Oc4ccccc4)cc3Cl)c12` [Compound 3] came in with an IC50 of 74.2 nM.

`O=C(c1ccc(Oc2ccccc2)cc1Cl)c1c[nH]c2ncc(F)c(N[C@@H]3CC[C@@H](CO)OC3)c12` [Compound 5] gave an IC50 of 8.9 nM.

For `N#Cc1cnc2[nH]cc(C(=O)c3ccc(Oc4ccccc4F)cc3Cl)c2c1N[C@@H]1CC[C@@H](CO)OC1` [Compound 2], the IC50 was found to be 11.7 nM.
